Results on three molecules are retold here after PMC6411751, “Use of machine learning to identify novel, behaviorally active antagonists of the insect odorant receptor co-receptor (Orco) subunit” (Scientific Reports, 2019).

Usually IC50 stands for the concentration that gives 50% inhibition.

Counter-ions that a name gives are not always drawn. Like-named read-outs stand apart in the source and are kept apart here.

This assay addresses T1, Agam\Orco (Anopheles gambiae, UniProt Q7QCC7).
T1 construct: expressed in transfected cells; host or cells: Xenopus laevis oocytes injected with capped cRNA (plasmid pT7TS, gift of L. Zwiebel)
T1 sequence (Q7QCC7 1-478): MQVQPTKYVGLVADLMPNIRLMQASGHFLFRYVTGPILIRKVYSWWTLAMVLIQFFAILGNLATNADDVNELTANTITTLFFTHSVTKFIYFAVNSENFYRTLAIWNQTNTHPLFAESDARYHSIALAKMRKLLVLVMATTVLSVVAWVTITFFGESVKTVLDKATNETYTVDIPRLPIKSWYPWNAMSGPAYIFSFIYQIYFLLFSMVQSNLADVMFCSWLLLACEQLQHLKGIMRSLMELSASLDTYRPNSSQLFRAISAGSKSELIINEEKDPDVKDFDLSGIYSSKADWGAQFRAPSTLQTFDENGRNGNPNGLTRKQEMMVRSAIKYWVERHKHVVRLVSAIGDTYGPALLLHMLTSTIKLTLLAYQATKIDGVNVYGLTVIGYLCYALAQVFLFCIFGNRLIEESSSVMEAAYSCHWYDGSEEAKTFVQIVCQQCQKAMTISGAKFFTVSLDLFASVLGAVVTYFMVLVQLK
Briefly: cell-based. Type of assay: cell-based. The essentials: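 Xenopus oocytes injected with 25 ng Agam\Orco cRNA, clamped at −70 mV in ND96 by two-electrode voltage clamp. After two 60 s pulses of 30 μM OLC12, compound applied 90 s then co-applied with OLC12 60 s; response was given as percent of prior OLC12 responses, sham-normalized.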

Turning to `C=CC(C)(CCC=C(C)C)OC=O` (centres unmarked) [LF, linalyl formate], the concentration for half-maximal inhibition (IC50) (read-out: IC50) is 251 ± 39 µM.

With `Cc1cccc(C(C)(C)C)c1O` [BMP, 2-tert-butyl-6-methylphenol], the “more potent than LF” value stood at 5 fold. Also, the IC50 (10 µM OLC12, n = 4-7, read-out: IC50 for inhibition of Agam\Orco activation by 10 µM OLC12) amounted to 12 ± 2 µM. In addition, the IC50 (100 µM OLC12, n = 3-9, read-out: IC50 for inhibition of Agam\Orco activation by 100 µM OLC12) came out at 137 ± 38 µM. The “mechanism of inhibition of Orco agonist (OLC12) responses” value (10 vs 100 µM OLC12 shifts inhibition curve) is on record as “competitive”. Also, under “Table 1, inhibition of Agam\Orco activated by 30 µM OLC12, mean ± SEM (n = 3–8), read-out: IC50”, the IC50 was determined as 48 ± 5 µM.

`Cc1ccc(C(C)C)c(O)c1O` [3I6MC, 3-isopropyl-6-methyl catechol]: the “inhibition of OLC12 activation” value (100 µM compound, 30 µM OLC12) is “strongly inhibited”. Also, where the note is “Agam\Orco activated by 30 µM OLC12, read-out: IC50”, the IC50 was found to be 41 ± 7 µM.
